# Reference: ChEMBL document CHEMBL1201862, “PubChem BioAssay data set” (2004)
# Calls of active or inactive are those of the source.
# Legend:
# [1] = AlphaScreen signal interference compounds, dose response, artefact control for ARNT-TACC3 interaction inhibitor project, biochemical, luminescence, cherry-pick (AID 651705); format: functional;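 also: AlphaScreen bead proximity signal that flags compounds interfering with the detection technology; potency reflects signal decrease which marks the compound as an assay artifact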
# [2] = target: T1, High affinity choline transporter 1 (Homo sapiens, UniProt Q9GZV3); test: CHT inhibitors, dose response, cell-based, 5-point CRC, membrane potential dye (AID 504840); format: functional
# T1 sequence (Q9GZV3 whole entry): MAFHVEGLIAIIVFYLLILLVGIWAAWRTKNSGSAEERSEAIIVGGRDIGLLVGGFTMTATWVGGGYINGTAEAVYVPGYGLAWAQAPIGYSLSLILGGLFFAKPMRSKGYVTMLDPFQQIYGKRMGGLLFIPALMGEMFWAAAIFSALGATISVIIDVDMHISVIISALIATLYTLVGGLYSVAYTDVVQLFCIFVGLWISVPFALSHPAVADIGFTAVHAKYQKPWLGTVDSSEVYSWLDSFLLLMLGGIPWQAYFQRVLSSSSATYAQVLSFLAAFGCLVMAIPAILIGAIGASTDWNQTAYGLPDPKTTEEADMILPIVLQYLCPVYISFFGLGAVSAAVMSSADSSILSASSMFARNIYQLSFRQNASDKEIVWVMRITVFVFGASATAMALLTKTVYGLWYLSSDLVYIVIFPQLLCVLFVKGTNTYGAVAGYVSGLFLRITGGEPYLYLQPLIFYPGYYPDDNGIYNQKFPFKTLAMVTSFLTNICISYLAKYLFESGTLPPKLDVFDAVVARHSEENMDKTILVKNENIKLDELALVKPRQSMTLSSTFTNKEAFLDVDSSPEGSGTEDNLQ
# [3] = target: T1, High affinity choline transporter 1; test: inhibitors of CHT choline uptake, dose response, cell-based, 3H-choline uptake, CHT LV-AA trafficking mutant, CRC (AID 602208); format: functional
# [4] = target: T1, High affinity choline transporter 1; test: CHT inhibitors, dose response, cell-based, 10-point CRC, membrane potential dye (AID 588401); format: functional;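 also: membrane potential dye fluorescence of choline-evoked depolarization via CHT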
# [5] = target: Adenosylmethionine-8-amino-7-oxononanoate aminotransferase (Mycobacterium tuberculosis, UniProt P9WQ81); test: Mycobacterium tuberculosis BioA enzyme inhibitor Measured in Biochemical System Using Plate Reader - 2163-02_Inhibitor_Dose_CherryPick_Activity.; format: functional, Mycobacterium tuberculosis UT205
# [6] = target: T2, Interleukin-8 (Homo sapiens, UniProt P10145); test: Dose Response confirmation of uHTS small molecule hits for cystic fibrosis induced NFkb Inhibitors in a TNFa-induced IL8 counterscreen.; format: functional; details: read-out: IC50_Mean
# [7] = target: T2, Interleukin-8; test: Dose Response confirmation of uHTS small molecule hits for cystic fibrosis induced NFkb Inhibitors in a PAF-induced IL8 counterscreen.; format: functional; details: read-out: IC50_Mean
# [8] = target: T3, Mitochondrial peptide methionine sulfoxide reductase (Bos taurus, UniProt P54149); format: functional;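 also: absorbance read-out, biochemical high-throughput dose-response screen for MsrA inhibitors, confirmatory; recombinant bovine MsrA coupled to E. coli TrxB with NADPH and selenocystamine; potency is for inhibitors of MsrA activity on DMSO substrate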
# T3 sequence (P54149 whole entry): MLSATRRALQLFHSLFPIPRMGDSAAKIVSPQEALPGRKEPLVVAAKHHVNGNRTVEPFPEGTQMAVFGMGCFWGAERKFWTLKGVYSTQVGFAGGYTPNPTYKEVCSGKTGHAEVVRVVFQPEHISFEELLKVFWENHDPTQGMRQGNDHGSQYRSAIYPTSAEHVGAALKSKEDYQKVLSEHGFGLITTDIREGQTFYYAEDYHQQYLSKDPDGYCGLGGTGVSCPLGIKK
# T2 sequence (P10145 whole entry): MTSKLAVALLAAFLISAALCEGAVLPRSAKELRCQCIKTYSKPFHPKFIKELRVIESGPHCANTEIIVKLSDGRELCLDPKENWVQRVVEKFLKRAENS
# Chain of Adenosylmethionine-8-amino-7-oxononanoate aminotransferase (P9WQ81 whole entry): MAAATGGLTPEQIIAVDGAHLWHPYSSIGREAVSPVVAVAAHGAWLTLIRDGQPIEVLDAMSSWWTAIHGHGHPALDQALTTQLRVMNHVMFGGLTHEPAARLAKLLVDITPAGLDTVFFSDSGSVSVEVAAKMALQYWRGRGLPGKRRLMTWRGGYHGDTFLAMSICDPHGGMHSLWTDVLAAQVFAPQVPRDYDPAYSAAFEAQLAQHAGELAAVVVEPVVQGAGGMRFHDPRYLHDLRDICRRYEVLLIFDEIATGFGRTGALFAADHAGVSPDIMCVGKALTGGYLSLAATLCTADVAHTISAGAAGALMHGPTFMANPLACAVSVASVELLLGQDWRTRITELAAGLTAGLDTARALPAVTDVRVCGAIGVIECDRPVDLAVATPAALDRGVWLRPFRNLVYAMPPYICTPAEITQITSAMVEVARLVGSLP
smiles,measurement,setting,value
O=C(Oc1cccc2cccnc12)c1ccco1,AC50,[1],131 µM (active)
CC1CCC(NC(=O)c2cccc(S(=O)(=O)NCc3ccccc3)c2)CC1 (stereo not drawn),IC50,[2],4.07 µM (active)
same,IC50,[3],8.42 µM (active)
same,IC50,[4],3.64 µM (active)
COc1ccc(-c2ccc3c(c2)C2CC3CCN2)cc1 (stereo not drawn),AC50,[5],1.07 µM (active)
CNc1ccc2ncc(-c3cccc(C(=O)N(C)C)c3)n2n1,IC50,[6],> 79 µM (inactive)
same,IC50,[7],2.04 µM (active)
O=C(O)c1cccc(N/N=C/c2sc(N3CCOCC3)nc2-c2ccccc2)c1,IC50,[8],155 µM (inactive)
